Where a name gives a salt, the structure may show the parent alone. Read-outs that look alike come from different tables or passages of the source. Each block holds one molecule with its values, some of them ahead of it.
How the values were obtained:
[1] = tested on: matrix metalloproteinase-9 (MMP-9) synthesis; assay: Stenotic valve tissue culture, gelatinase (MMP-2 and MMP-9) assay; format: cell-based
Protocol: The study was conducted using tissue collected from four surgically removed, stenotic tricuspid valves. […] Gelatinases (MMP-2 and MMP-9) from the valve tissue samples were assayed. The analyzed bands were related to the total protein measured using a Bio-Rad DC Protein Assay Kit (Bio-Rad, Hercules, Calif.).

[2] = single dose of two 100 mg minocycline HCl tablets, adult human; cited from earlier work
[3] = 250 mg tetracycline HCl every six hours over a twenty-four hour period; cited from earlier work
[4] = Serum levels after oral dosing in humans; conditions: dose of about 10 to about 20 mg/day
[5] = 1 μM, stenotic tricuspid valve tissue incubated for ten days

MMP-9 inhibitory effect [1, 5]: inhibitory effect was seen
SMILES: CC1c2cccc(O)c2C(=O)C2=C(O)C3(O)C(=O)C(C(N)=O)=C(O)CC3C(O)C21 (stereo not drawn) [CMT-8, 4-dedimethylaminodoxycycline]

SMILES: CN(C)c1ccc(O)c2c1C[C@H]1C[C@H]3[C@H](N(C)C)C(O)=C(C(N)=O)C(=O)[C@@]3(O)C(O)=C1C2=O [minocycline HCl]
minocycline serum level (average) [2]: 2.24 µg/mL

SMILES: CN(C)[C@@H]1C(O)=C(C(N)=O)C(=O)[C@@]2(O)C(O)=C3C(=O)c4c(O)cccc4[C@@](C)(O)[C@H]3C[C@@H]12 [tetracycline]
MMP-9 inhibitory effect [1, 5]: no significant inhibitory effect
expression of MMP-9 / MMP-9 synthesis ([1]; 30 μM, stenotic tricuspid valve tissue incubated for ten days): had an inhibitory effect on MMP-9 synthesis, but only at the end of the culture

SMILES: CN(C)[C@@H]1C(O)=C(C(N)=O)C(=O)[C@@]2(O)C(O)=C3C(=O)c4c(O)cccc4[C@@](C)(O)[C@H]3C[C@@H]12 [tetracycline HCl]
peak plasma concentration [3]: approximately 3 μg/ml

SMILES: NC(=O)C1=C(O)C[C@@H]2C[C@@H]3Cc4cccc(O)c4C(=O)C3=C(O)[C@]2(O)C1=O [CMT-3, 6-demethyl-6-deoxy-4-de(dimethylamino)tetracycline]
MMP-9 inhibitory effect [1]: inhibitory effect was seen
comparative efficiency of impact on MMP-9 synthesis [1]: most efficient inhibitor of MMP-9 synthesis
expression of MMP-9 / MMP-9 synthesis [1]: decreased significantly from day 6 to the end of the culture
serum levels in humans [4]: about 1.0 μg/ml

— US20100137261A1, “Method for treating aortic stenosis with non-antibacterial tetracycline formulations” (priority 2004, published 2010)
